Data taken from patent US20110218143A1, “COMPOSITIONS AND METHODS FOR TISSUE REPAIR” (UNIVERSITY OF FLORIDA RESEARCH FOUNDATION, priority 2007, published 2011).
“And” between values parts separate entries of the source, which are not always exact repeats. Equal values may be shown once. “Also recorded” adds a separate entry of the source.

Legend:
[1] = system: NOD mice; test: Blood glucose / diabetes incidence in NOD mouse model; assay type: in vivo
Protocol: The NOD mouse is recognized as a model for human Type1 diabetes (Anderson and Bluestone, “THE NOD MOUSE: A Model of Immune Dysregulation” Annual Review of Immunology 23: 447-485, 2005, which is incorporated by reference in its entirety). Celastrol was administered to the mice at the rate of 3.0 mg/kg body weight via intra-peritoneal injection once a week in NOD mice starting from 4 weeks of age. When mice attained 11 weeks of age, the compound was administered at the rate of 3.3 mg/kg body weight via oral gavage three times a week up to 30 weeks of age. Blood glucose levels were measured at the time of celastrol administration once a week from 4-10 weeks and three times a week from 11-30 weeks. Mice in control group were treated with placebo.

[2] = system: irradiated wild type mice, C57BL/6; test: Secondary adaptive transfer of bone marrow cells into irradiated wild type mice; assay type: in vivo, C57BL/6 mice; conditions: bone marrow cells from celastrol treated primary adaptive transfer group, 1.5×10^6 cells per mouse; at 7 weeks; control group died within 10 days
Excerpt: Wild type mice that survived the primary transfer were used for secondary transfer. Bone marrow cells obtained from these mice were collected and transferred into irradiated wild type mice, C57BL/6 at 1.5×10^6 cells per mouse.

[3] = system: mice with STZ induced diabetes; test: Glucose challenge test in STZ mice; assay type: in vivo, C57BL6/J mice; conditions: 1 g glucose/kg, monitored up to 5 hours, placebo mice at or above 400 mg/dl between 0.5 and 2 hours
Protocol: STZ was administered to C57BL6/J mice as described above to induce diabetes. Groups of C57BL6/J mice that received either STZ and placebo or STZ and celastrol were then subjected to a glucose challenge test to assay glucose metabolism. STZ mice received 1 g glucose/kg. Blood glucose levels were monitored for up to 5 hours following administration of glucose. […] Blood glucose levels never reached these levels in STZ mice treated with celastrol. In fact, mice treated with celastrol were better able to metabolize glucose than STZ mice that received placebo (FIG. 10).

[4] = system: mice with STZ induced diabetes; test: Blood glucose in streptozotocin (STZ) induced diabetes model; assay type: in vivo, C57BL6/J mice; conditions: STZ 50 mg/kg i.p.; celastrol 2.5 mg/kg by injection from day -2, three times per week; monitored 30 days
Protocol: The administration of streptozotocin to induce pancreatic cell death is a well-known model of diabetes, see for example, Like and Rossini, “Streptozotocin-induced pancreatic insulitis: new model of diabetes mellitus.” Science. Jul. 30, 1976; 193(4251):415-7. Fasting C57BL6/J mice received 50 mg/kg streptozotocin (STZ) by intraperitoneal injection at day 0. Two days prior to (−2 day) and concurrently with STZ injection half of the mice also received celastrol by injection (2.5 mg/kg). Celastrol injections continued three times per week throughout the experiment. Blood glucose levels were monitored for 30 days after treatment (FIG. 9). […] In mice, normoglycemia is typically less than 200 mg/dL blood glucose.

[5] = system: irradiated wild type mice, C57BL/6; test: Transfer of blood cells of treated GFP mice into irradiated wild type mice; assay type: in vivo, C57BL/6 mice
Protocol: As reported herein, celastrol activated and mobilized stem cells into peripheral blood. These observations were extended using GFP mice to analyse stem cell mobilization. Mice expressing GFP in their bone marrow were treated with celastrol and placebo. Blood samples were collected on the third day and red blood cells were lysed. White blood cells containing mobilized stem cells, if any, were injected at 0.5×10^6 cells per mouse through retro-orbital sinus into wild type mice, C57BL/6 that were irradiated to destroy the hematopoietic systems. Cells obtained from placebo-treated GFP mice were injected into a group of wild type mice which served as control. Blood samples from wild type mice that received stem cells from celastrol-treated GFP mice were analyzed after 3, 4 and 5 months of transfer.

SMILES: CC1=C(O)C(=O)C=C2C1=CC=C1[C@@]2(C)CC[C@@]2(C)[C@@H]3C[C@](C)(C(=O)O)CC[C@]3(C)CC[C@]12C [celastrol]
- mice that became hyperglycemic (more than 250 mg/dL) ([1]; celastrol 3.0 mg/kg i.p. once a week from 4 weeks, 3.3 mg/kg oral gavage three times a week from 11 to 30 weeks of age, at 23 weeks of age): twenty
- mice euglycemic or normoglycemic (less than 250 mg/dL) ([1]; same regimen, up to 30 weeks of age): Eighty
- mice still surviving secondary transfer [2]: 85.7%
- blood glucose levels after glucose challenge [3]: < 400 mg/dL
- blood glucose levels in STZ mice relative to STZ mice injected with saline placebo [4]: substantially lower; also recorded: normoglycemia
- recipient mice surviving for at least 5 months ([5]; irradiated mice given 0.5×10^6 white blood cells from celastrol treated GFP mice, n=4, placebo-cell recipients died between 12 and 16 days): 50%
- survival time of the other two recipient mice ([5]; irradiated mice given cells from celastrol treated GFP mice): 17 days and 25 days
